Results on one compound are retold here after US20150051269A1, “Drug Delivery Conjugate Capable of Controlled Release, and Use Thereof” (POSTECH ACADEMY-INDUSTRY FOUNDATION, priority 2012, published 2015).

SMILES strings stand for the structures.

Series [1] can be described thus: Size of drug delivery conjugates in aqueous solution (Zetasizer Nano S). It is filed as physicochemical. The conditions noted are these: diameter in aqueous solution. The protocol: (§1) To measure the sizes and surface charges of the drug delivery conjugates prepared by the method of Example 1, the surface charges and sizes of the drug delivery conjugates in an aqueous solution were measured using a surface charge measurement system (Zetasizer Nano Z) and a size measurement system (Zetasizer Nano S).

The nature of series [2]: Surface charge in aqueous solution (Zetasizer Nano Z). It is filed as physicochemical. The procedure:
as §1

As for `CC(=O)O[C@H]1C(=O)[C@@]2(C)[C@H]([C@H](OC(=O)c3ccccc3)[C@]3(O)C[C@H](OC(=O)[C@H](O)[C@@H](NC(=O)c4ccccc4)c4ccccc4)C(C)=C1C3(C)C)[C@]1(OC(C)=O)CO[C@@H]1C[C@@H]2O` [PTX, paclitaxel], the “Size (d, nm)” value in series [1] is reported as 806.4 ± 235.9 nm. Besides, the “Zeta potential (mV)” value in series [2] is on record as −39.2 ± 1.50 mV.
